The term pEC50 denotes −log10 of the EC50, conventionally taken in molar units. A lower pEC50 goes with a high EC50. What is called Cmax is the highest concentration seen after dosing. For orientation: half-life means the time needed for the level to fall by half in the phase considered. A high value points to slow loss.

Structures are written as SMILES. pEC50: −log10 of the molar value. *1 amine or outer side, *2 acyl side, *3 side chain or, on linkers, in order; H or OH if unused. Where a SMILES comes first, the peptide text is derived from it. Side-chain parts run from the residue outwards. [ ]: non-standard residue; d: D form. The star is where a group is joined. γGlu = O=C(O)[C@H](CCC(=O)[*:2])N[*:1]; Stearoyl = CCCCCCCCCCCCCCCCCC(=O)*; Aib = CC(C)(N)C(=O)O

Consider one molecule from patent US20140206608A1 (priority 2012, published 2014).

For one data set, the system named is α-chymotrypsin. In words: Enzymatic stability testing versus α-chymotrypsin. It counts as in vitro ADME. Conditions: human, human recombinant α-chymotrypsin, pH 8.3; % of degradation after 120 min; 2 μM peptide, 37° C.; read-out: Lability versus enzymatic degradation, α-Chymotrypsin. On the procedure: The reaction was stopped by addition of ethanol. The samples were analyzed by LC-MS/MS. […] The metabolic lability is given as % of degradation.

Another data set has as its target neprilysin (Homo sapiens, UniProt P08473). Put plainly: in vitro. Conditions: human recombinant neprilysin, pH 7.5.
Data set [1] can be described thus: Chemical stability in solution, 7 days at 25° C. (% remaining peptide). Format: physicochemical. Conditions: % remaining peptide after 7 days at 25° C. The source says:
The chemical stability is expressed as “% remaining peptide”.

The subject of data set [2] is female diabetic dbdb-mice. Put plainly: 4 weeks of treatment on glucose, HbA1c and oral glucose tolerance in female diabetic dbdb-mice (method 4). It counts as in vivo. On the procedure: 8 week old, female diabetic dbdb-mice of mean non-fasted glucose value of 14.5 mmol/l and a body weight of 37-40 g were used. Mice were individually marked and were adapted to housing conditions for at least one week.
7 days prior to study start, baseline values for non-fasted glucose and HbA1c were determined, 5 days prior to study start, mice were assigned to groups and cages (5 mice per cage, 10 per group) according to their HbA1c values to ensure even distribution of lower and higher values between groups (stratification).
Mice were treated for 4 weeks, by once daily subcutaneous administration 3 hours prior to the dark phase (6 pm to 6 am). Blood samples from a tail tip incision were obtained for HbA1c on study day 21 and oral glucose tolerance was assessed in the 4th week. Oral glucose tolerance test was done in the morning without prior extra compound administration to majorly assess the effect of chronic treatment and less of acute compound administration. Mice were fasted for 4 hours prior to oral glucose administration (2 g/kg, t=0 min). Blood samples were drawn prior to glucose administration and at 15, 30, 60, 90, 120, and 180 min thereafter. Feed was returned after the last blood sampling. Results are represented as change from baseline, glucose in mmol/l and HbA1c in %.
Statistical analyses are performed with Everstat Version 6.0 based on SAS by 1-way-ANOVA, followed by Dunnett's post-hoc test against vehicle-control. Differences are considered statistically significant at the p<0.05 level.

In data set [3] the target is T1, human glucagon receptor (hGLUC R) (Homo sapiens, UniProt P47871).
T1 construct: expressed in transfected cells; host or cells: HEK-293
In words: cAMP response of HEK-293 cells stably expressing human glucagon receptor (HTRF). It counts as cell-based. As to conditions: EC50 hGLUC R, Table 7; cAMP formation. On the procedure: cAMP content of cells was determined using a kit from Cisbio Corp. (cat. no. 62AM4PEC) based on HTRF (Homogenous Time Resolved Fluorescence). For preparation, cells were split into T175 culture flasks and grown overnight to near confluency in medium (DMEM/10% FBS). Medium was then removed and cells washed with PBS lacking calcium and magnesium, followed by proteinase treatment with accutase (Sigma-Aldrich cat. no. A6964). Detached cells were washed and resuspended in assay buffer (1×HBSS; 20 mM HEPES, 0.1% BSA, 2 mM IBMX) and cellular density determined. They were then diluted to 400000 cells/ml and 25 μl-aliquots dispensed into the wells of 96-well plates. For measurement, 25 μl of test compound in assay buffer was added to the wells, followed by incubation for 30 minutes at room temperature.
For orientation: In TR-FRET formats the signal depends on donor and acceptor labels being close together.

A short description of a further data set: in vivo. Conditions: mouse, plasma, sc, 1 mg/kg.
The mark [4] stands for this setting: 10 μg/kg s.c. once daily, p<0.05.

Chain of neprilysin (P08473 whole entry): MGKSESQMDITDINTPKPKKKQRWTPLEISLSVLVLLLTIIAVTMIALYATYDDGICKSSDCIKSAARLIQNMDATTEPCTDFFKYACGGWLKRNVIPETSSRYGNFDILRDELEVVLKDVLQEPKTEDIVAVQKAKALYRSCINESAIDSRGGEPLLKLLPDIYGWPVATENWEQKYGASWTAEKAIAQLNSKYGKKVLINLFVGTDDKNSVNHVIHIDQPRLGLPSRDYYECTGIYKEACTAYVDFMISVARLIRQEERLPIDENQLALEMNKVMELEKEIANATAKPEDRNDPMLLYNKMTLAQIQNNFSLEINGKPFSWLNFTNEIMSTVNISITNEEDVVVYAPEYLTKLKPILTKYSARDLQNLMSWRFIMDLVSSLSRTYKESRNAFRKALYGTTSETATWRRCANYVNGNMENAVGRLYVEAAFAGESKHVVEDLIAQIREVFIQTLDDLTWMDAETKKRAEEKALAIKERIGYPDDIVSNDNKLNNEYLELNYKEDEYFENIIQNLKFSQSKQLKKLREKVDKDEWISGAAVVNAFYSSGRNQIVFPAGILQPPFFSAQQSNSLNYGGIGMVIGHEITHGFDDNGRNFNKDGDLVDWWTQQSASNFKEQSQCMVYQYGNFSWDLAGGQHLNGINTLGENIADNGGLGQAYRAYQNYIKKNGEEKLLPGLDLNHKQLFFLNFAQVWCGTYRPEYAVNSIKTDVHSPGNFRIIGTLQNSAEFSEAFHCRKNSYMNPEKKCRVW
T1 sequence (P47871 26-477): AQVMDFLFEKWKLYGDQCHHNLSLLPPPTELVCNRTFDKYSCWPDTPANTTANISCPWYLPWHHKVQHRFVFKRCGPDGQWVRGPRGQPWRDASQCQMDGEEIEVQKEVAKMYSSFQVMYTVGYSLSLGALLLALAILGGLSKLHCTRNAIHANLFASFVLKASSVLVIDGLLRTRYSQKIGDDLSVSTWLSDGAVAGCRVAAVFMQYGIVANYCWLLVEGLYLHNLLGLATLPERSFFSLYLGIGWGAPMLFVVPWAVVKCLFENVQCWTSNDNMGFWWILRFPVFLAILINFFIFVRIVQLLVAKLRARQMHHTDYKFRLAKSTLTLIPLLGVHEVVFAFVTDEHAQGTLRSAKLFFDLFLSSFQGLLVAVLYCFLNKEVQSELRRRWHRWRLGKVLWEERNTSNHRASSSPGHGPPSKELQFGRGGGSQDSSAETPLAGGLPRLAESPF
Procedure for in vivo: Mice were dosed 1 mg/kg subcutaneously (s.c.). The mice were sacrificed and blood samples were collected after 0.25, 0.5, 1, 2, 4, 8, 16 and 24 hours post application. Plasma samples were analyzed after protein precipitation via liquid chromatography mass spectrometry (LC/MS). PK parameters and half-life were calculated using WinonLin Version 5.2.1 (non-compartment model).
Procedure for neprilysin: In the experiment, GLP-1 was used as a positive control. The incubation was started by addition of the enzyme fraction to the pre-warmed buffer solution. […] The reaction was stopped by addition of ethanol. The samples were analyzed by LC-MS/MS. The percentage of biotransformation was measured by extent of depletion of the test compound in mass spectrometry. Therefore the peak area of the MRM ion signal of the 0h time point (100%) versus the incubated time points was measured. The metabolic lability is given as % of degradation.

Take `CCCCCCCCCCCCCCCCCC(=O)N[C@@H](CCC(=O)NCCCC[C@H](NC(=O)[C@H](CCC(N)=O)NC(=O)[C@@H](NC(=O)[C@H](CO)NC(=O)[C@H](CC(C)C)NC(=O)[C@H](CC(=O)O)NC(=O)[C@H](CO)NC(=O)[C@@H](NC(=O)[C@H](Cc1ccccc1)NC(=O)[C@@H](NC(=O)CNC(=O)[C@H](CCC(=O)O)NC(=O)C(C)(C)NC(=O)[C@@H](N)Cc1ccc(O)cc1)[C@@H](C)O)[C@@H](C)O)[C@@H](C)CC)C(=O)N[C@@H](CCC(=O)O)C(=O)N[C@@H](CCC(=O)O)C(=O)N[C@@H](CCC(=O)O)C(=O)N[C@@H](C)C(=O)N[C@H](C(=O)N[C@@H](CCCNC(=N)N)C(=O)N[C@@H](CC(C)C)C(=O)N[C@@H](Cc1ccccc1)C(=O)N[C@H](C(=O)N[C@@H](CCC(=O)O)C(=O)N[C@@H](Cc1c[nH]c2ccccc12)C(=O)N[C@@H](CC(C)C)C(=O)N[C@@H](CCCCN)C(=O)N[C@@H](C)C(=O)NCC(=O)NCC(=O)N1CCC[C@H]1C(=O)N[C@@H](CO)C(=O)N[C@@H](CO)C(=O)NCC(=O)N[C@@H](C)C(=O)N1CCC[C@H]1C(=O)N1CCC[C@H]1C(=O)N1CCC[C@H]1C(=O)N[C@@H](CO)C(N)=O)[C@@H](C)CC)C(C)C)C(=O)O` [SEQ ID NO: 10, Y-Aib-E-G-T-F-T-S-D-L-S-I-Q-K(γE-x70)-EEEAVRLFIEWLKAGGPSSGAPPPS-NH2] (H-Y[Aib]EGTFTSDLSIQK([γGlu-Stearoyl])EEEAVRLFIEWLKAGGPSSGAPPPS-NH2): in the data set with α-chymotrypsin, the metabolised at 2 h, 2 μM turned out to be 48%. Also, at neprilysin, the metabolised at 2 h, 2 μM is 0%. Further, the “Stability (pH 4.5)” value in data set [1] (pH 4.5) came out at 99.0%. For the same molecule, in data set [1] (pH 7.4), the “Stability (pH 7.4)” value was determined as 97.0%. The “non-fasted glucose compared to vehicle control” value in data set [2] (10 μg/kg s.c. once daily) is “tended to reduce non-fasted glucose”. For the same molecule, in data set [2] (setting [4]), the “HbA1c compared to vehicle control” value was “prevented an increase of HbA1c in a statistical significant manner” and the “reduction of AUC under the glucose curve compared to vehicle control” value is “reached statistical significance”. The oral glucose tolerance result in data set [2] (3 and 10 μg/kg s.c. once daily) is “improved oral glucose tolerance”. In addition, in data set [3], the pEC50 was less than 6.00. In the data set “in vivo”, this molecule gave a Cmax of 5740 ng/mL and a half-life of 4.3 h.
